Assay results reported in article PMC10945555, “Improving Activity of New Arylurea Agents against Multidrug-Resistant and Biofilm-Producing Staphylococcus epidermidis” (ACS Medicinal Chemistry Letters, 2024).

Experiments:
[1] = test system: biofilm-producing Staphylococcus epidermidis strains; assay: Inhibition of biofilm formation (MBIC, resazurin); type: cell-based
Description: After 24 hours incubation each well of
concentration of 4 mg/mL was added. […]

[2] = test system: biofilm-producing Staphylococcus epidermidis strains; assay: Biofilm eradication (MBEC Assay Kit); type: cell-based
[3] = S. epidermidis ATCC 35984 (Table S4)

O=S(=O)(NC1CCN(CCC(Oc2ccc(C(F)(F)F)cc2)c2cccs2)CC1)c1cccc(Cl)c1 (stereo not drawn) [Compound 14]
MBIC [1, 3]: 31.25 µg/mL
MBIC50 ([1]; Table S4 strains): 125 µg/mL
MBIC ([1]; clinical strain 1 (Table S4)): 31.25 µg/mL
MBIC ([1]; clinical strain 2 (Table S4)): 125 µg/mL
MBIC ([1]; clinical strain 3 (Table S4)): 125 µg/mL
MBIC ([1]; clinical strain 4 (Table S4)): 125 µg/mL
MBIC ([1]; clinical strain 5 (Table S4)): 62.5 µg/mL
MBIC ([1]; clinical strain 6 (Table S4)): 125 µg/mL
MBIC ([1]; clinical strain 7 (Table S4)): 125 µg/mL
MBIC ([1]; clinical strain 8 (Table S4)): 15.6 µg/mL
MBIC ([1]; clinical strain 9 (Table S4)): 125 µg/mL
MBIC ([1]; clinical strain 11 (Table S4)): 125 µg/mL
MBIC ([1]; clinical strain 12 (Table S4)): 125 µg/mL
MBIC ([1]; clinical strain 13 (Table S4)): 62.5 µg/mL
MBIC ([1]; clinical strain 15 (Table S4)): 125 µg/mL
MBIC ([1]; clinical strain 16 (Table S4)): 31.25 µg/mL
MBIC ([1]; clinical strain 17 (Table S4)): 62.5 µg/mL
MBIC ([1]; clinical strain 19 (Table S4)): 31.25 µg/mL
MBIC ([1]; clinical strain 21 (Table S4)): 125 µg/mL
MBIC ([1]; clinical strain 22 (Table S4)): 125 µg/mL
MBIC ([1]; clinical strain 23 (Table S4)): 7.8 µg/mL
MBIC ([1]; clinical strain 25 (Table S4, Figure 2)): 31.25 µg/mL
MBIC ([1]; clinical strain 26 (Table S4)): 125 µg/mL
MBIC ([1]; clinical strain 27 (Table S4)): 250 µg/mL
MBIC ([1]; clinical strain 28 (Table S4)): 62.5 µg/mL
MBIC ([1]; clinical strain 29 (Table S4)): 62.5 µg/mL
MBIC ([1]; clinical strain 30 (Table S4)): 62.5 µg/mL
MBIC ([1]; clinical strain 33 (Table S4)): 125 µg/mL
MBIC ([1]; clinical strain 35 (Table S4)): 125 µg/mL
MBIC ([1]; clinical strain 36 (Table S4)): 62.5 µg/mL
MBIC ([1]; clinical strain 37 (Table S4)): 125 µg/mL
MBIC ([1]; clinical strain 39 (Table S4)): 15.6 µg/mL
MBIC ([1]; clinical strain 40 (Table S4)): 31.25 µg/mL
MBIC ([1]; clinical strain 41 (Table S4)): 125 µg/mL
MBIC ([1]; clinical strain 42 (Table S4)): 125 µg/mL
MBIC ([1]; clinical strain 43 (Table S4)): 250 µg/mL
MBIC ([1]; clinical strain 44 (Table S4)): 62.5 µg/mL
MBIC ([1]; clinical strain 45 (Table S4)): 125 µg/mL
MBIC ([1]; clinical strain 46 (Table S4)): 125 µg/mL
MBIC ([1]; clinical strain 47 (Table S4)): 62.5 µg/mL
MBIC ([1]; clinical strain 49 (Table S4)): 31.25 µg/mL
MBIC ([1]; clinical strain 51 (Table S4)): 125 µg/mL
MBIC ([1]; clinical strain 55 (Table S4)): 125 µg/mL
MBIC ([1]; clinical strain 58 (Table S4)): 125 µg/mL
MBIC ([1]; clinical strain 59 (Table S4)): 125 µg/mL
MBIC ([1]; clinical strain 65 (Table S4)): 125 µg/mL
MBIC ([1]; clinical strain 66 (Table S4)): 125 µg/mL
MBIC ([1]; clinical strain 67 (Table S4)): 125 µg/mL
MBIC ([1]; clinical strain 70 (Table S4)): 125 µg/mL
MBIC ([1]; clinical strain 73 (Table S4)): 31.25 µg/mL
MBIC ([1]; clinical strain 74 (Table S4)): 125 µg/mL
MBIC ([1]; clinical strain 75 (Table S4)): 31.25 µg/mL
MBIC ([1]; clinical strain 78 (Table S4)): 15.6 µg/mL
MBIC ([1]; clinical strain 79 (Table S4)): 31.25 µg/mL
MBEC [2, 3]: 31.25 µg/mL
MBEC50 ([2]; Table S4 strains): 125 µg/mL
MBEC ([2]; clinical strain 1 (Table S4)): 125 µg/mL
MBEC ([2]; clinical strain 2 (Table S4)): 125 µg/mL
MBEC ([2]; clinical strain 3 (Table S4)): 250 µg/mL
MBEC ([2]; clinical strain 4 (Table S4)): 125 µg/mL
MBEC ([2]; clinical strain 5 (Table S4)): 125 µg/mL
MBEC ([2]; clinical strain 6 (Table S4)): 125 µg/mL
MBEC ([2]; clinical strain 7 (Table S4)): 125 µg/mL
MBEC ([2]; clinical strain 8 (Table S4)): 31.25 µg/mL
MBEC ([2]; clinical strain 9 (Table S4)): 250 µg/mL
MBEC ([2]; clinical strain 11 (Table S4)): 250 µg/mL
MBEC ([2]; clinical strain 12 (Table S4)): 125 µg/mL
MBEC ([2]; clinical strain 13 (Table S4)): 62.5 µg/mL
MBEC ([2]; clinical strain 15 (Table S4)): 125 µg/mL
MBEC ([2]; clinical strain 16 (Table S4)): 62.5 µg/mL
MBEC ([2]; clinical strain 17 (Table S4)): 62.5 µg/mL
MBEC ([2]; clinical strain 19 (Table S4)): 31.25 µg/mL
MBEC ([2]; clinical strain 21 (Table S4)): 125 µg/mL
MBEC ([2]; clinical strain 22 (Table S4)): 125 µg/mL
MBEC ([2]; clinical strain 23 (Table S4)): 15.6 µg/mL
MBEC ([2]; clinical strain 25 (Table S4)): 31.25 µg/mL
MBEC ([2]; clinical strain 26 (Table S4)): 250 µg/mL
MBEC ([2]; clinical strain 27 (Table S4)): 250 µg/mL
MBEC ([2]; clinical strain 28 (Table S4)): 125 µg/mL
MBEC ([2]; clinical strain 29 (Table S4)): 125 µg/mL
MBEC ([2]; clinical strain 30 (Table S4)): 125 µg/mL
MBEC ([2]; clinical strain 33 (Table S4)): 125 µg/mL
MBEC ([2]; clinical strain 35 (Table S4)): 125 µg/mL
MBEC ([2]; clinical strain 36 (Table S4)): 125 µg/mL
MBEC ([2]; clinical strain 37 (Table S4)): 125 µg/mL
MBEC ([2]; clinical strain 39 (Table S4)): 31.25 µg/mL
MBEC ([2]; clinical strain 40 (Table S4)): 125 µg/mL
MBEC ([2]; clinical strain 41 (Table S4)): 125 µg/mL
MBEC ([2]; clinical strain 42 (Table S4)): 125 µg/mL
MBEC ([2]; clinical strain 43 (Table S4)): 250 µg/mL
MBEC ([2]; clinical strain 44 (Table S4)): 62.5 µg/mL
MBEC ([2]; clinical strain 45 (Table S4)): 125 µg/mL
MBEC ([2]; clinical strain 46 (Table S4)): 125 µg/mL
MBEC ([2]; clinical strain 47 (Table S4)): 62.5 µg/mL
MBEC ([2]; clinical strain 49 (Table S4)): 31.25 µg/mL
MBEC ([2]; clinical strain 51 (Table S4)): 125 µg/mL
MBEC ([2]; clinical strain 55 (Table S4)): 125 µg/mL
MBEC ([2]; clinical strain 58 (Table S4)): 125 µg/mL
MBEC ([2]; clinical strain 59 (Table S4)): 125 µg/mL
MBEC ([2]; clinical strain 65 (Table S4)): 125 µg/mL
MBEC ([2]; clinical strain 66 (Table S4)): 125 µg/mL
MBEC ([2]; clinical strain 67 (Table S4)): 125 µg/mL
MBEC ([2]; clinical strain 70 (Table S4)): 250 µg/mL
MBEC ([2]; clinical strain 73 (Table S4)): 31.25 µg/mL
MBEC ([2]; clinical strain 74 (Table S4)): 125 µg/mL
MBEC ([2]; clinical strain 75 (Table S4)): 31.25 µg/mL
MBEC ([2]; clinical strain 78 (Table S4)): 31.25 µg/mL
MBEC ([2]; clinical strain 79 (Table S4)): 31.25 µg/mL
